Results: PMC3713097 (Chemical research in toxicology, 2013)
Where two headings read alike, the source gives them in different places.

Assays:
P450 2A6 [1] = biological target: T1, P450 2A6 (Homo sapiens, UniProt P11509); settings: 10 nM P450, 2.5 µM procarcinogen, means ± range of duplicate experiments
T1 sequence (P11509 1-494): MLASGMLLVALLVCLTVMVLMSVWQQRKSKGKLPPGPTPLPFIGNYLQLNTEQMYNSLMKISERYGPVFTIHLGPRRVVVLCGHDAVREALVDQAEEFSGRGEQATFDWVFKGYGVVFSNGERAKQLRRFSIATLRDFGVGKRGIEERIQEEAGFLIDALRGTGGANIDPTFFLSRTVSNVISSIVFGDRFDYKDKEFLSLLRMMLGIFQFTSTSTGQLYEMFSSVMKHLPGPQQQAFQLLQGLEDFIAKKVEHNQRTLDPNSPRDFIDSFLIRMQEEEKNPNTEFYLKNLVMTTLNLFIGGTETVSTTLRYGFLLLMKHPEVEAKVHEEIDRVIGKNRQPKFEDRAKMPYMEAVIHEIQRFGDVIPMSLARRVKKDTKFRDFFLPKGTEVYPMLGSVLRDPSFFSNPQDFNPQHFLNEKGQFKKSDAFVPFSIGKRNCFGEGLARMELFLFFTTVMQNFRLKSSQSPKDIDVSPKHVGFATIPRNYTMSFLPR

human P450 2A13 = biological target: T2, human P450 2A13 (Homo sapiens, UniProt Q16696); settings: 10 nM P450, 2.5 µM procarcinogen, means ± range of duplicate experiments
T2 sequence (Q16696 31-494 limits assumed): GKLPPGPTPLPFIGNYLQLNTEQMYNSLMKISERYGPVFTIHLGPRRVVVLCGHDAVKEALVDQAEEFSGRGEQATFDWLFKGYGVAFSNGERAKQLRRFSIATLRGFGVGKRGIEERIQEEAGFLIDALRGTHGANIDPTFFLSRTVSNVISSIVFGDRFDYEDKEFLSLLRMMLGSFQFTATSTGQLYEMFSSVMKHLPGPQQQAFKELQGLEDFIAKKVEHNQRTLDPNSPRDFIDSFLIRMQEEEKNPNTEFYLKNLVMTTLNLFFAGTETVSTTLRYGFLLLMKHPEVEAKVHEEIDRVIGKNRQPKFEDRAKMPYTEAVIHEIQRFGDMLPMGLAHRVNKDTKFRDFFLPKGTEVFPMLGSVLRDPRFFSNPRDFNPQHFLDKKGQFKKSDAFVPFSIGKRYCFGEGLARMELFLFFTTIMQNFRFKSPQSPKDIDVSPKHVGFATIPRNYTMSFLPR

P450 2A13 = biological target: T3, P450 2A13 (Homo sapiens, UniProt Q16696); assay: Spectral binding titration with purified P450 2A13; settings: for ΔAmax/ Ks / ΔAmax: P450 2A13, Type I spectra; for ΔAmax: ± SE
T3 sequence (Q16696 with tags, fused parts or gaps limits assumed): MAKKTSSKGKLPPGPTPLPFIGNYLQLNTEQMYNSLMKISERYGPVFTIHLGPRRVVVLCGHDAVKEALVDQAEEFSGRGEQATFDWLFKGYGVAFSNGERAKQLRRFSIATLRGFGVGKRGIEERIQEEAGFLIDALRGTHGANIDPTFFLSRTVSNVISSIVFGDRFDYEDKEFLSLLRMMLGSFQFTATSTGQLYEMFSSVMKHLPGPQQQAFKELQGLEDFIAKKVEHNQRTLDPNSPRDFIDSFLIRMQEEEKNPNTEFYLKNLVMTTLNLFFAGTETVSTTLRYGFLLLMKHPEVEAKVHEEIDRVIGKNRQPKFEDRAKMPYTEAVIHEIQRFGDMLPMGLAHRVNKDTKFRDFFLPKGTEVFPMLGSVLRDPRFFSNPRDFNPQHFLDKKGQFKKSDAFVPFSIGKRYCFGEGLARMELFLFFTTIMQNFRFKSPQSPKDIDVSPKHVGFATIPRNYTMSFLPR

P450 1B1 [2] = biological target: T4, P450 1B1 (Homo sapiens, UniProt Q16678, L432V); assay: Spectral binding titration with purified P450 1B1; settings: for ΔAmax/ Ks / ΔAmax: P450 1B1, Reverse Type I spectra; for ΔAmax: ± SE
T4 sequence (Q16678 1-543 L432V): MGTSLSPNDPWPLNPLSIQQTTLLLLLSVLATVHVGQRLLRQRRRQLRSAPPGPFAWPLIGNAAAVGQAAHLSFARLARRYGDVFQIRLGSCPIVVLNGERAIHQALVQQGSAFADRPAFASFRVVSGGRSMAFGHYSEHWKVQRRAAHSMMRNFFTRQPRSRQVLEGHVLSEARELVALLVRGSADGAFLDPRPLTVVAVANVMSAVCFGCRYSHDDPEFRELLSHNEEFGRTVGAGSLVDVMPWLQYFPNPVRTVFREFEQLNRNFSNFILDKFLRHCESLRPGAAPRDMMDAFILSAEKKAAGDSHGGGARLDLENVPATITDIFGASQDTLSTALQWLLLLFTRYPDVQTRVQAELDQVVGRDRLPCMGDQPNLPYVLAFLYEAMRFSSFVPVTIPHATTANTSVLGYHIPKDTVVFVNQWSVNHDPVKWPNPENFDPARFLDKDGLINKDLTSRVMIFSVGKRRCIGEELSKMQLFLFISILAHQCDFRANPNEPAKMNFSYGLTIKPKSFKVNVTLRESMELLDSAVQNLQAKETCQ

P450 2A6 [3] = biological target: T1, P450 2A6; assay: Spectral binding titration with purified P450 2A6
P450 1B1 [4] = biological target: T4, P450 1B1; settings: 10 nM P450, 2.5 µM procarcinogen, means ± range of duplicate experiments

| Compound | activation of procarcinogens umu gene expression (P450 2A6 [1]) [units/min/nmol P450] | activation of procarcinogens umu gene expression (human P450 2A13) [units/min/nmol P450] | Kd (P450 2A13) [µM] | ΔAmax/ Ks (P450 2A13) | ΔAmax (P450 2A13) | Kd (P450 1B1 [2]) [µM] | ΔAmax/ Ks (P450 1B1 [2]) | ΔAmax (P450 1B1 [2]) | Kd (P450 2A6 [3]) [µM] | activation of procarcinogens umu gene expression (P450 1B1 [4]) [units/min/nmol P450] | ΔAmax/ Ks (P450 2A6 [3]; P450 2A6, Type I spectra) | ΔAmax (P450 2A6 [3]; P450 2A6, Type I spectra, ± SE) | spectral interaction with P450 2A6 (Type I binding spectra) (P450 2A6 [3]; result in words) | Kd (P450 2A13; read-out: Ks, pH 7.4) [µM] | Kd (P450 2A6 [3]; read-out: Ks, pH 7.4) [µM] |
| --- | --- | --- | --- | --- | --- | --- | --- | --- | --- | --- | --- | --- | --- | --- | --- |
| c1ccc2c(c1)ccc1ccc3ccccc3c12 [B[c]Phe, benzo[c]phenanthrene] | 22 ± 8 | 55 ± 11 | 1.1 ± 0.44 | 0.045 | 0.049 ± 0.005 | 2.5 ± 0.31 | 0.016 | 0.039 ± 0.001 | > 20 | 25 ± 10 | – | – | – | – | – |
| OC1C=Cc2c(ccc3ccc4ccccc4c23)C1O (stereo not drawn) [B[c]Phe-3,4-diol, 3,4-dihydroxy-3,4-dihydrobenzo[c]phenanthrene] | 33 ± 10 | 45 ± 8 | > 20 | – | – | > 20 | – | – | – | 140 ± 21 | – | – | – | – | – |
| OC1C=Cc2c(ccc3c4ccccc4c4ccccc4c23)C1O (stereo not drawn) [B[g]C-11,12-diol, 11,12-dihydroxy-11,12-dihydrobenzo[g]chrysene] | <10 | <10 | – | – | – | – | – | – | – | 207 ± 25 | – | – | – | – | – |
| OC1C=C2c3ccccc3-c3cccc(c32)C1O (stereo not drawn) [FA-2,3-diol, 2,3-dihydroxy-2,3-dihydrofluoranthene] | 36 ± 8 | 88 ± 13 | 0.86 ± 0.16 | 0.060 | 0.052 ± 0.003 | 7.4 ± 1.3 | 0.0058 | 0.043 ± 0.003 | – | 30 ± 11 | – | – | – | – | – |
| Cn1c(N)nc2c3cccnc3ccc21 [IQ, 2-amino-3-methylimiidazo[4,5-f]quinoline] | 75 ± 11 | 430 ± 40 | – | – | – | – | – | – | – | 220 ± 29 | – | – | – | – | – |
| Cn1c(N)nc2ncc(-c3ccccc3)cc21 [PhIP, 2-amino-1-methyl-6-phenylimidazo[4,5-b]pyridine] | <10 | <10 | – | – | – | > 20 | – | – | – | <10 | – | – | – | – | – |
| c1cc2c3c(cccc3c1)CC2 [acenaphthene] | <10 | <10 | 0.48 ± 0.1 | 0.15 | 0.074 ± 0.005 | > 20 | – | – | 1.2 ± 0.21 | <10 | 0.057 | 0.068 ± 0.002 | interacted | – | – |
| OC1C=Cc2c(ccc3c2ccc2ccccc23)C1O (stereo not drawn) [chrysene-1,2-diol, 1,2-dihydroxy-1,2-dihydrochrysene] | <10 | <10 | > 20 | – | – | > 20 | – | – | – | 220 ± 19 | – | – | – | – | – |
| c1ccc2c(c1)ccc1c3ccccc3ccc21 [chrysene] | – | – | > 20 | – | – | > 20 | – | – | – | – | – | – | – | – | – |
| aflatoxin B1 [AFB1] | – | – | – | – | – | – | – | – | – | – | – | – | – | > 20 | > 20 |
